Results reported in the NIST ThermoML archive (doi:10.1007/s10765-006-0056-z).

Assay: molar heat capacity at constant volume; xn = mol fraction of the nth substance listed

CCCCCCCCCC [decane] + O=C=O
Conditions	molar heat capacity at constant volume [J/K/mol]
443.07 K, Fluid (supercritical or subcritical phases), Mass density=374.7 kg/m3, Isochoric Heat Capacity Apparatus, x1 = 0.095	344.18
443.68 K, Fluid (supercritical or subcritical phases), Mass density=374.7 kg/m3, Isochoric Heat Capacity Apparatus, x1 = 0.095	343.49
444.49 K, Fluid (supercritical or subcritical phases), Mass density=374.7 kg/m3, Isochoric Heat Capacity Apparatus, x1 = 0.095	342.85
447.32 K, Fluid (supercritical or subcritical phases), Mass density=457.5 kg/m3, Isochoric Heat Capacity Apparatus, x1 = 0.178	485.87
447.32 K, Liquid, iso, x1 = 0.178	568.28
447.95 K, Fluid (supercritical or subcritical phases), Mass density=457.5 kg/m3, Isochoric Heat Capacity Apparatus, x1 = 0.178	478.12
448.27 K, Fluid (supercritical or subcritical phases), Mass density=457.5 kg/m3, Isochoric Heat Capacity Apparatus, x1 = 0.178	482.3
448.55 K, Fluid (supercritical or subcritical phases), Mass density=457.5 kg/m3, Isochoric Heat Capacity Apparatus, x1 = 0.178	479.96
449.12 K, Fluid (supercritical or subcritical phases), Mass density=398.3 kg/m3, Isochoric Heat Capacity Apparatus, x1 = 0.095	331.01
451.39 K, Fluid (supercritical or subcritical phases), Mass density=201.8 kg/m3, Isochoric Heat Capacity Apparatus, x1 = 0.178	488.2
451.39 K, Liquid, iso, x1 = 0.178	574.18
452.33 K, Fluid (supercritical or subcritical phases), Mass density=457.5 kg/m3, Isochoric Heat Capacity Apparatus, x1 = 0.178	465.26
452.33 K, Fluid (supercritical or subcritical phases), Mass density=509.4 kg/m3, Isochoric Heat Capacity Apparatus, x1 = 0.095	318.95
453.23 K, Fluid (supercritical or subcritical phases), Mass density=457.5 kg/m3, Isochoric Heat Capacity Apparatus, x1 = 0.178	462.99
457.12 K, Fluid (supercritical or subcritical phases), Mass density=374.7 kg/m3, Isochoric Heat Capacity Apparatus, x1 = 0.095	340.82
457.77 K, Liquid, iso, x1 = 0.178	595.83
459 K, Fluid (supercritical or subcritical phases), Mass density=477.6 kg/m3, Isochoric Heat Capacity Apparatus, x1 = 0.095	323.65
460.15 K, Liquid, iso, x1 = 0.178	606.1
460.39 K, Fluid (supercritical or subcritical phases), Mass density=320.2 kg/m3, Isochoric Heat Capacity Apparatus, x1 = 0.095	354.21
460.69 K, Fluid (supercritical or subcritical phases), Mass density=320.2 kg/m3, Isochoric Heat Capacity Apparatus, x1 = 0.095	351.33
460.89 K, Fluid (supercritical or subcritical phases), Mass density=320.2 kg/m3, Isochoric Heat Capacity Apparatus, x1 = 0.095	350
463.26 K, Fluid (supercritical or subcritical phases), Mass density=87 kg/m3, Isochoric Heat Capacity Apparatus, x1 = 0.095	712.69
463.26 K, Fluid (supercritical or subcritical phases), Mass density=398.3 kg/m3, Isochoric Heat Capacity Apparatus, x1 = 0.095	334.16
463.45 K, Fluid (supercritical or subcritical phases), Mass density=457.5 kg/m3, Isochoric Heat Capacity Apparatus, x1 = 0.178	459.11
463.65 K, Fluid (supercritical or subcritical phases), Mass density=87 kg/m3, Isochoric Heat Capacity Apparatus, x1 = 0.095	685.49
463.85 K, Fluid (supercritical or subcritical phases), Mass density=87 kg/m3, Isochoric Heat Capacity Apparatus, x1 = 0.095	688.16
464.05 K, Fluid (supercritical or subcritical phases), Mass density=87 kg/m3, Isochoric Heat Capacity Apparatus, x1 = 0.095	691.36
465.43 K, Fluid (supercritical or subcritical phases), Mass density=87 kg/m3, Isochoric Heat Capacity Apparatus, x1 = 0.095	690.82
466.3 K, Fluid (supercritical or subcritical phases), Mass density=408.8 kg/m3, Isochoric Heat Capacity Apparatus, x1 = 0.178	493.61
467.05 K, Fluid (supercritical or subcritical phases), Mass density=408.8 kg/m3, Isochoric Heat Capacity Apparatus, x1 = 0.178	490.54
467.19 K, Fluid (supercritical or subcritical phases), Mass density=87 kg/m3, Isochoric Heat Capacity Apparatus, x1 = 0.095	706.83
467.97 K, Fluid (supercritical or subcritical phases), Mass density=408.8 kg/m3, Isochoric Heat Capacity Apparatus, x1 = 0.178	487.71
468.76 K, Fluid (supercritical or subcritical phases), Mass density=374.7 kg/m3, Isochoric Heat Capacity Apparatus, x1 = 0.095	336.34
468.76 K, Fluid (supercritical or subcritical phases), Mass density=408.8 kg/m3, Isochoric Heat Capacity Apparatus, x1 = 0.178	486.42
470.72 K, Fluid (supercritical or subcritical phases), Mass density=477.6 kg/m3, Isochoric Heat Capacity Apparatus, x1 = 0.095	326.31
471.2 K, Fluid (supercritical or subcritical phases), Mass density=281.4 kg/m3, Isochoric Heat Capacity Apparatus, x1 = 0.095	360.93
471.69 K, Fluid (supercritical or subcritical phases), Mass density=281.4 kg/m3, Isochoric Heat Capacity Apparatus, x1 = 0.095	359.81
471.89 K, Fluid (supercritical or subcritical phases), Mass density=281.4 kg/m3, Isochoric Heat Capacity Apparatus, x1 = 0.095	358.48
473.25 K, Fluid (supercritical or subcritical phases), Mass density=281.4 kg/m3, Isochoric Heat Capacity Apparatus, x1 = 0.095	350.91
474.61 K, Fluid (supercritical or subcritical phases), Mass density=457.5 kg/m3, Isochoric Heat Capacity Apparatus, x1 = 0.178	456.77
475.97 K, Fluid (supercritical or subcritical phases), Mass density=110.8 kg/m3, Isochoric Heat Capacity Apparatus, x1 = 0.095	594.8
476.12 K, Fluid (supercritical or subcritical phases), Mass density=110.8 kg/m3, Isochoric Heat Capacity Apparatus, x1 = 0.095	599.07
476.33 K, Fluid (supercritical or subcritical phases), Mass density=110.8 kg/m3, Isochoric Heat Capacity Apparatus, x1 = 0.095	591.07
476.36 K, Fluid (supercritical or subcritical phases), Mass density=320.2 kg/m3, Isochoric Heat Capacity Apparatus, x1 = 0.095	342.64
476.56 K, Fluid (supercritical or subcritical phases), Mass density=408.8 kg/m3, Isochoric Heat Capacity Apparatus, x1 = 0.178	472.21
476.75 K, Fluid (supercritical or subcritical phases), Mass density=110.8 kg/m3, Isochoric Heat Capacity Apparatus, x1 = 0.095	590.53
476.94 K, Fluid (supercritical or subcritical phases), Mass density=398.3 kg/m3, Isochoric Heat Capacity Apparatus, x1 = 0.095	336.82
477.33 K, Fluid (supercritical or subcritical phases), Mass density=110.8 kg/m3, Isochoric Heat Capacity Apparatus, x1 = 0.095	594.8
477.52 K, Fluid (supercritical or subcritical phases), Mass density=374.7 kg/m3, Isochoric Heat Capacity Apparatus, x1 = 0.095	337.73
477.52 K, Fluid (supercritical or subcritical phases), Mass density=375 kg/m3, Isochoric Heat Capacity Apparatus, x1 = 0.178	493.12
477.81 K, Fluid (supercritical or subcritical phases), Mass density=375 kg/m3, Isochoric Heat Capacity Apparatus, x1 = 0.178	495.64
478.2 K, Fluid (supercritical or subcritical phases), Mass density=375 kg/m3, Isochoric Heat Capacity Apparatus, x1 = 0.178	491.03
478.49 K, Fluid (supercritical or subcritical phases), Mass density=375 kg/m3, Isochoric Heat Capacity Apparatus, x1 = 0.178	492.57
479.84 K, Fluid (supercritical or subcritical phases), Mass density=408.8 kg/m3, Isochoric Heat Capacity Apparatus, x1 = 0.178	471.47
481.77 K, Fluid (supercritical or subcritical phases), Mass density=241 kg/m3, Isochoric Heat Capacity Apparatus, x1 = 0.095	380.35
481.96 K, Fluid (supercritical or subcritical phases), Mass density=241 kg/m3, Isochoric Heat Capacity Apparatus, x1 = 0.095	378.38
482.02 K, Fluid (supercritical or subcritical phases), Mass density=131.5 kg/m3, Isochoric Heat Capacity Apparatus, x1 = 0.095	517.93
482.41 K, Fluid (supercritical or subcritical phases), Mass density=131.5 kg/m3, Isochoric Heat Capacity Apparatus, x1 = 0.095	521.08
483.31 K, Fluid (supercritical or subcritical phases), Mass density=241 kg/m3, Isochoric Heat Capacity Apparatus, x1 = 0.095	370.32
483.37 K, Fluid (supercritical or subcritical phases), Mass density=131.5 kg/m3, Isochoric Heat Capacity Apparatus, x1 = 0.095	528.44
485.04 K, Fluid (supercritical or subcritical phases), Mass density=281.4 kg/m3, Isochoric Heat Capacity Apparatus, x1 = 0.095	352.45
